Data: US4772704A, “2,5-disubstituted-4(3H)-pyrimidones having histamine H2 -receptor antagonist activity” (Bristol-Myers Company, priority 1983, dated 1988)

Legend:
[1] = cited from earlier work
[2] = tested on: histamine-stimulated gastric acid output; assay: Gastric Antisecretory Activity In The Heidenhain Pouch Dog; type: in vivo, female dogs
Description: Determination of Gastric Antisecretory Activity In The Heidenhain Pouch Dog
Prior to surgery, hematology and blood chemistry profiles are obtained and an assessment made as to the general health of selected female dogs. Dogs are vaccinated with Tissue Vax 5 (DHLP--Pitman-Moore) and housed in general animal quarters for four weeks' observation so incipient diseases may become apparent. Dogs are fasted with water ad libitum 24 hours prior to surgery.
Anesthesia is induced with Sodium Pentothal (Abbott) 25-30 mg/kg iv. Subsequent anesthesia is maintained with methoxyflurane (Pitman-Moore). A midline linea alba incision from xiphoid to umbilicus provides good exposure and ease of closure. The stomach is pulled up into the operative field, the greater curvature stretched out at multiple points and clamps placed along the selected line of incision. The pouch is made from the corpus of the stomach so that true parietal cell juice is obtained. About 30% of the corpus volume is resected. The cannula is made of light-weight,biologically-inert material such as nylon or Delrin with dimensions and attachments after DeVito and Harkins (J. Appl. Physiol., 14, 138 (1959). Post operatively, dogs are medicated with antibiotics and an analgesic. They are allowed 2-3 months for recovery. Experiments are carried out in the following way: Dogs are fasted overnight (≈18 hours) with water ad libitum prior to each experiment. The dogs are placed in a sling and a saphenous vein cannulated for drug administration. Histamine as the base (100 μg/kg/hr) and chlorpheniramine maleate (0.25 mg/kg/hr) are infused continuously (in a volume of 6 ml/hr) with a Harvard infusion pump.
Ninety minutes' infusion are allowed for the dogs to reach a steady state of acid output. At this time the drug or normal saline (control) is administered concomitantly with the secretagogue in a volume of 0.5 ml/kg over a 30 second period. When oral studies are to be carried out, the drug is administered via gastric gavage in a volume of 5 ml/kg. Infusion of the secretagogue is continued and 15 minute samples of the gastric juice are taken for 4.5 hours. Each sample is measured to the nearest 0.5 ml and titratable acidity is determined by titrating a 1 ml sample to pH 7.0 with 0.2N NaOH, using an Autoburet and an electrometric pH meter (Radiometer). Titratable acid output is calculated in microequivalents by multiplying the volume in milliliters by the acid concentration in milliequivalents per liter.
Results are expressed as percent inhibition relative to control readings and the response is the average for five dogs at that dose level.

[3] = tested on: histamine H2-receptor; conditions: relative to burimamide or metiamide; cited from earlier work
[4] = tested on: gastric acid secretion; assay: Gastric Antisecretory Activity in the Gastric Fistula Rat; type: in vivo, Male Long Evans rats; conditions: sc
Description: Determination of Gastric Antisecretory Activity in the Gastric Fistula Rat Male Long Evans rats weighing about 240-260 grams at the time of cannula implantation are used. […] The fistula components are designed and the operative procedure is carried out exactly as described in the above reference. Post operatively the animals are individually housed in solid bottom cages with sawdust and are allowed food and water ad libitum throughout the entire recovery period. Animals are not used for test purposes for at least 15 days after the operative procedure. The animals are fasted but allowed water ad libitum for 20 hours before the testing procedure is to begin. […] The catheter is then screwed into the cannula in place of the plugging screw and the rat is placed in a clear plastic rectangular cage measuring 40 cm long, 15 cm wide and 13 cm high. The bottom of the cage has a slit approximately 1.5 cm wide and 25 cm long running down the center to accommodate the catheter which hangs through it. […] Chem. Path. […] Titratable acid output is calculated in microequivalents by multiplying the volume in milliliters by the acid concentration in milliequivalents per liter. Results are expressed as percent inhibition relative to control readings. Dose response curves are constructed and ED50 values are calculated by regression analyses. […]

[5] = tested on: histamine H2-receptor; conditions: man; cited from earlier work

In the case of CNC(=S)NCCCCc1cnc[nH]1 [Burimamide], the oral absorption [1] is listed as “poor”.
For CNC(=NC#N)NCCSCc1nc[nH]c1C [Cimetidine, reference compound], the “% Maximum Inhibition” value ([2]; Intravenous, dose 6.0 μmoles/kg, Heidenhain pouch dog) is listed as 94%, the “% Maximum Inhibition” value ([2]; Oral, dose 12.0 μmoles/kg, Heidenhain pouch dog) is listed as 95% and the “potency or effectiveness as histamine H2-antagonist, relative” value [3] is listed as “as effective an histamine H2 -antagonist as metiamide”.
With Nc1cnc(NCCCOc2cccc(CN3CCCCC3)c2)[nH]c1=O [Example 2, 5-Amino-2-[3-(3-piperidinomethylphenoxy)propylamino]-4(3H)-pyrimidone] the ED50 [4] was 0.15 µmol/kg, the “Potency Ratio [cimetidine = 1.0]” value ([4]; cimetidine = 1.0) was 26 and the “% Maximum Inhibition” value ([2]; Intravenous, single dose 0.094 μmoles/kg, 5 dogs) was 90%. The “Potency Ratio [cimetidine = 1.0]” value ([2]; Intravenous) was 50, the “% Maximum Inhibition” value ([2]; Oral, single dose 0.5 μmoles/kg, 5 dogs) was 86% and the “Potency Ratio [cimetidine = 1.0]” value ([2]; Oral) was 20. The “duration of antisecretory action relative to cimetidine” value ([2]; both the intravenous and oral dog models) was “prolonged duration of action relative to cimetidine”.
For CNC(=S)NCCSCc1nc[nH]c1C [Metiamide], the “potency or effectiveness as histamine H2-antagonist, relative” value [3] is listed as “more potent than burimamide” and the oral activity [5] is listed as “orally active in man”.
